Where two headings read alike, the source gives them in different places. Square brackets hold non-standard residues; d marks the D form. Peptide text beside a SMILES is read from it. * marks the point of attachment. X1 = O=C(COc1ccc(/C=C/C2=[N+]3C(=Cc4ccc(-c5cccs5)n4[B-]3(F)F)C=C2)cc1)*; Propanoyl(3-Pip(4-O-2-BnPh)) = O=C(CCN1CCC(Oc2ccccc2Cc2ccccc2)CC1)*; βAla = NCCC(=O)O
Key:
[1] = target: T1, Nluc-H3R (Homo sapiens, UniProt Q9Y5N1); test: NanoBRET saturation binding assay on Nluc-H3R HEK293T cell homogenates; settings: for binding at H3R in saturation assay (in words): concentrations of up to 1 μM; for Kd / Nluc-H3R pKD: cell homogenates, highest concentration 1 μM for 31a, 31k; for Nluc-H3R pKD: mean ± SEM, three experiments
T1 construct: expressed in transfected cells; host or cells: HEK293T, transient transfection; sonicated cell homogenates
Experimental: (§1) HEK293T cells were transiently transfected with 2.5 μg of cDNA encoding Nluc-H3R or Nluc-H4R and 2.5 μg of empty pcDEF3 vector using the polyethylenimine method as described previously in Mocking et al.[23] Two days after transfection, cells were collected in phosphate-buffered saline (PBS) and centrifuged at 1900g for 10 min and the cell pellet was stored at −20°C until the day of experiment. The pellet was resuspended in HBSS buffer, and cells were disrupted using a Branson sonifier 250 (Boom bv., Meppel, the Netherlands) prior to use in a NanoBRET binding assay.
For all NanoBRET binding experiments, 10 μM NanoGlo substrate (Promega) was added to each well after the incubation period and fluorescence and luminescence emissions were measured after 5 min.
(§2) Total and non-specific saturation binding curves from NanoBRET saturation binding assay were fitted simultaneously using eq 1: [drawing 4] 1 where Bmax is the maximal specific binding, [B] is the concentration of fluorescent ligand in nM, KD is the equilibrium dissociation constant in nM, M is the slope of the non-specific component, and C is the intercept with the Y axis.

[2] = target: T2, Nluc-H4R (Homo sapiens, UniProt Q9H3N8); test: NanoBRET saturation binding assay on Nluc-H4R HEK293T cell homogenates; settings: for Kd / Nluc-H4R pKD: cell homogenates, highest concentration 1 μM for 31a, 31k; for Nluc-H4R pKD: mean ± SEM, three experiments; for binding at H4R in saturation assay (in words): concentrations of up to 1 μM
T2 construct: expressed in transfected cells; host or cells: HEK293T, transient transfection; sonicated cell homogenates
Experimental: as §1
For cell membrane NanoBRET saturation binding experiments, cell homogenates expressing the Nluc-H3R or Nluc-H4R were incubated with the required concentrations of fluorescent ligand in the absence and presence of 10 μM clobenpropit in HBSS for 2 h at 25 °C. For all NanoBRET binding experiments, 10 μM NanoGlo substrate (Promega) was added to each well after the incubation period and fluorescence and luminescence emissions were measured after 5 min.
as §2

[3] = target: T2, Nluc-H4R; set-up: method as in PMID 30249614; settings: literature value, cited from earlier work
[4] = target: H1R; settings: cited from earlier work
[5] = target: T3, human H1R (Homo sapiens, UniProt P35367); test: Ca2+ mobilization assay on human H1R-expressing CHO cells; type: cell-based; settings: Gaddum equation, shift in histamine EC25 with 1 μM antagonist
T3 construct: expressed in transfected cells; host or cells: CHO cells
Experimental: CHO cells expressing H1R were grown to confluence in black-walled, clear-bottom 96-well plates. On the day of the experiment, media were replaced with 100 μL of HBSS containing […], 2.3 μM Fluo-4AM (Invitrogen), 0.023% Pluronic F-127, 0.5 mM Brilliant Black BN, and 1 μM required fluorescent ligand and the plates incubated for 1 h at 37 °C in the dark. The plates were then placed in the multi-well fluorometric imaging plate reader FlexStation3 (Molecular Devices, Sunnyvale, CA) and HBSS only or HBSS containing the required concentration of histamine was added after 15 s. Fluo-4 fluorescence was measured at 520 nm (excitation at 485 nm) every 1.52 s for 200 s. For each well, the peak maximum–minimum–maximum change in fluorescence value was taken and plotted against concentration of histamine to give a dose–response curve.
Estimated affinity values (pKB) were calculated from the shift in agonist concentration–response curves in the presence of the fluorescent antagonists using the Gaddum equation (7): [drawing 10] 7 where DR (dose ratio) is the ratio of the agonist concentration required to stimulate an identical response in the presence and absence of antagonist, [B]. DR was determined from the EC25 value as there was a decrease in observed maximal efficacy of histamine in the presence of all 10 fluorescent antagonists.

[6] = target: T4, YFP-tagged H1R (Homo sapiens, UniProt P35367); test: confocal imaging of YFP-tagged H1R expressing CHO cells; type: cell-based; settings: 1, 5, 10, 25 nM, 30 min, 37 °C, ± 10 μM mepyramine
T4 construct: expressed in transfected cells; host or cells: CHO cells
Experimental: H1R-YFP expressing CHO cells were grown to approximately 80% confluency on an 8-well Labtek chambered coverglass (Nunc Nalgene). On the day of experiment, the cells were washed two times with 200 μL of HBSS and subsequently incubated in the presence or absence of 10 μM mepyramine for 30 min at 37 °C in humidified air with 0% CO2. The required concentration of 31a was added to the wells and incubated for another 30 min at 37 °C. Images were acquired using a Zeiss LSM710 confocal microscope (Carl Zeiss GmbH, Hena, Germany) fitted with a 63× plan-Apochromat NA1.3 Ph3 oil-immersion lens. For YFP, a 488 nm argon laser was used for excitation and emission was detected using a BP505-30 filter. For fluorescent ligand 31a, a 633 nm helium-neon laser was used for excitation and emission was detected using a 650 nm long pass filter. A pinhole of 1 Airy Unit was used, and fixed laser power, gain, and offset for the BODIPY 630/650 containing compounds were kept constant across all experiments.

[7] = target: T5, Nluc-H1R (Homo sapiens, UniProt P35367); test: NanoBRET saturation binding assay on Nluc-H1R expressing HEK293T cells; set-up: expressed in transfected cells; settings: saturation binding curves, whole HEK293T cells; for pKD: non-specific with 10 μM mepyramine, mean ± SEM
Description: as §2

[8] = target: T5, Nluc-H1R; test: NanoBRET association kinetics assay on Nluc-H1R HEK293T cells; type: binding; set-up: expressed in transfected cells; settings: for Kd: kinetic pKD, read-out: pKD determined from kon and koff (converted); for Kd / kon / MRT (mean residence time, 1/koff) / koff: mean ± SEM; for residence time: read-out: mean residence times (MRT); for kon / MRT (mean residence time, 1/koff) / koff: real-time NanoBRET; for kon: room temperature, 90 min
Experimental: For whole cell NanoBRET association kinetic experiments, 10 μM furimazine was added to each well and incubated at room temperature in the dark for 15 min to allow for stabilization of the luminescence signal. The required concentration of fluorescent ligand in the presence or absence of 10 μM of doxepin was added simultaneously, and the plates were read immediately with each well being read once per min for 90 min.
For the NanoBRET association kinetic experiments, the BRET ratio was determined for each concentration of fluorescent ligand at each time point in the presence or absence of 10 μM of doxepin. Specific binding was calculated by subtracting non-specific binding from total binding.

[9] = mean ± SEM, four experiments, read-out: pKB (converted)

T1 sequence (Q9Y5N1 whole entry): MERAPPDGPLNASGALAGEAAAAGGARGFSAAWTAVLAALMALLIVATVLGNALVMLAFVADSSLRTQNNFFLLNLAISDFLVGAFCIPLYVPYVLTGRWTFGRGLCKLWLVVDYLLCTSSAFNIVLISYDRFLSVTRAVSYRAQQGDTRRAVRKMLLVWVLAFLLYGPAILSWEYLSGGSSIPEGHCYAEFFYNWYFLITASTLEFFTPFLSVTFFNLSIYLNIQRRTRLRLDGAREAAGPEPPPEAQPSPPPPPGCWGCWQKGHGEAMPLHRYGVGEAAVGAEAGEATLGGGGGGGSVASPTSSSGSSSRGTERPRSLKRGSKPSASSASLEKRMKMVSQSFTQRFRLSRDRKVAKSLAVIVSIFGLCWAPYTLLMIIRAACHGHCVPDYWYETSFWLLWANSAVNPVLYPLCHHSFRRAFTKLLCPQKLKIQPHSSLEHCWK
T2 sequence (Q9H3N8 whole entry): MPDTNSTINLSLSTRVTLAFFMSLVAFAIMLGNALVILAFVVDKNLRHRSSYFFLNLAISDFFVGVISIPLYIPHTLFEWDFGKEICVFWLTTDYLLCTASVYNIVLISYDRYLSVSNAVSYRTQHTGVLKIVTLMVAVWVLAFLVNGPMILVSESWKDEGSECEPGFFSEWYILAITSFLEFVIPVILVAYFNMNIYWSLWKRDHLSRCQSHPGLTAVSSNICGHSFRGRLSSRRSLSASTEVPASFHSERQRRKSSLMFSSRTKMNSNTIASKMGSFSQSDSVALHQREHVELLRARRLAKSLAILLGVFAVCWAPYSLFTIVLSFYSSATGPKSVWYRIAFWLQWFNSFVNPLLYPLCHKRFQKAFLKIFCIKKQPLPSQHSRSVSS
T5 sequence (P35367 whole entry): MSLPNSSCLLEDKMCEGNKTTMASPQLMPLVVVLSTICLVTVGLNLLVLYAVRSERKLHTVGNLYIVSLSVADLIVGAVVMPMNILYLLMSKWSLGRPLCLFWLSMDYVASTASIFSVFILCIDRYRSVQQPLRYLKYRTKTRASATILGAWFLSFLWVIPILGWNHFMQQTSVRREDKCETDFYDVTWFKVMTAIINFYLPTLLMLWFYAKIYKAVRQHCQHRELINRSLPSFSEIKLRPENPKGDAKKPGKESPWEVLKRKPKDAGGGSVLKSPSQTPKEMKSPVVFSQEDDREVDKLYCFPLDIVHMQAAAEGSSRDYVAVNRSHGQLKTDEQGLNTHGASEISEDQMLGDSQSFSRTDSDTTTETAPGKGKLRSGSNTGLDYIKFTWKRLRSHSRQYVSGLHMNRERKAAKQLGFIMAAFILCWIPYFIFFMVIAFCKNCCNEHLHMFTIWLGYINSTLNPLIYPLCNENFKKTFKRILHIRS
T3 sequence (P35367 whole entry): as above
T4 sequence (P35367 whole entry): as above

SMILES | binding at H3R in saturation assay (in words) [1] | Kd [2] [µM] | Nluc-H4R pKD [2] | binding at H4R in saturation assay (in words) [2] | Kb [5, 9] [µM] | Kb ([5]; read-out: KB (converted)) [µM] | Kd [1] [µM] | Nluc-H3R pKD [1] | Kd [7] [µM] | pKD [7] | Kd [8] [µM] | residence time [8] [min] | kon [8] [M⁻¹ s⁻¹] | MRT (mean residence time, 1/koff) [8] [h] | koff [8] [s⁻¹] | further results
NC(=NCc1ccc(Cl)cc1)SCCCc1cnc[nH]1 [CA200843, reference compound] | concentration-dependent, saturable and reversible binding | 0.031 | 7.51 ± 0.04 | concentration-dependent, saturable and reversible binding |  |  |  |  |  |  |  |  |  |  |  | pKD at Nluc-H4R reported in literature [3]: 7.15; Kd ([3]; read-out: binding affinity at Nluc-H4R reported in literature): 0.07 µM
C[C@@H](NC(=O)CCN1CCC(Oc2ccccc2Cc2ccccc2)CC1)C(=O)N[C@H](C)C(=O)N[C@H](C)C(=O)NCCNC(=O)CCCCCNC(=O)COc1ccc(/C=C/C2=[N+]3C(=Cc4ccc(-c5cccs5)n4[B-]3(F)F)C=C2)cc1 [Compound 1] |  |  |  |  |  |  |  |  |  |  |  |  |  |  |  | Radioligand binding assay (hH1R) pKi [4]: 8.4 ± 0.1
CC(C)[C@H](NC(=O)CCN1CCC(Oc2ccccc2Cc2ccccc2)CC1)C(=O)N[C@@H](CO)C(=O)N[C@@H](CC(N)=O)C(=O)NCCC(=O)N[C@@H](CCCCNC(=O)COc1ccc(/C=C/C2=[N+]3C(=Cc4ccc(-c5cccs5)n4[B-]3(F)F)C=C2)cc1)C(N)=O [Compound 31a, (S)-N1-(3-(((S)-1-Amino-6-(2-(4-((E)-2-(5,5-difluoro-7-(thiophen-2-yl)-5H-5λ^4,6λ^4-dipyrrolo[1,2-c:2’,1’-f][1,3,2]diazaborinin-3-yl)vinyl)phenoxy)acetamido)-1-oxohexan-2-yl)amino)-3-oxopropyl)-2-((S)-2-((S)-2-(3-(4-(2-benzylphenoxy)piperidin-1-yl)propanamido)-3-methylbutanamido)-3-hydroxypropanamido)succinamide] ({Propanoyl(3-Pip(4-O-2-BnPh))}-VSN[βAla]K(X1)-NH2) | little to no binding | < 1 | < 6 | little to no binding | 0.00275 | 0.003 | < 1 | < 6 | 0.004 | 8.40 ± 0.08 | 0.0178 | > 60 | 14000 | 1.26 ± 0.17 | 0.000233 | localization in confocal imaging [6]: localized to the plasma membrane of the cells with almost no intracellular uptake
C[C@H](NC(=O)[C@H](C)NC(=O)[C@H](Cc1ccccc1)NC(=O)CCN1CCC(Oc2ccccc2Cc2ccccc2)CC1)C(=O)NCCC(=O)N[C@@H](CCCCNC(=O)COc1ccc(/C=C/C2=[N+]3C(=Cc4ccc(-c5cccs5)n4[B-]3(F)F)C=C2)cc1)C(N)=O [Compound 31k, (S)-2-((6S,9S,12S)-12-Benzyl-16-(4-(2-benzylphenoxy)piperidin-1-yl)-6,9-dimethyl-5,8,11,14-tetraoxo-4,7,10,13-tetraazahexadecanamido)-6-(2-(4-((E)-2-(5,5-difluoro-7-(thiophen-2-yl)-5H-5λ^4,6λ^4-dipyrr-olo[1,2-c:2’,1’-f][1,3,2]diazaborinin-3-yl)vinyl)phenoxy)acetamido)hexanamide] ({Propanoyl(3-Pip(4-O-2-BnPh))}-FAA[βAla]K(X1)-NH2) | little to no binding | < 1 | < 6 | little to no binding | 0.00257 | 0.003 | < 1 | < 6 | 0.012 | 7.92 ± 0.08 | 0.0229 | > 60 | 11400 | 1.31 ± 0.24 | 0.000233 | selectivity for H1R over H3R and H4R ([1]; from NanoBRET saturation binding at H1R, H3R, H4R): approximately 100 fold
C[C@H](NC(=O)[C@H](C)NC(=O)[C@H](Cc1ccccc1)NC(=O)CCN1CCC(Oc2ccccc2Cc2ccccc2)CC1)C(=O)NCCC(=O)N[C@@H](CCCCNC(=O)CCCCC[N+]1=C(/C=C/C=C/C=C2/N(C)c3ccc(S(=O)(=O)[O-])cc3C2(C)C)C(C)(C)c2cc(S(=O)(=O)O)ccc21)C(N)=O [Compound 39f, 1-((5S,8S,11S,18S)-5-Benzyl-1-(4-(2-benzylphenoxy)piperidin-1-yl)-18-carbamoyl-8,11-dimethyl-3,6,9,12,16,24-hexaoxo-4,7,10,13,17,23-hexaazanonacosan-29-yl)-3,3-dimethyl-2-((1E,3E)-5-((E)-1,3,3-trimethyl-5-sulfonatoindolin-2-ylidene)penta-1,3-dien-1-yl)-3H-indol-1-ium-5-sulfonate] |  |  |  |  |  | 0.813 |  |  | 2.19 | 5.66 ± 0.06 |  |  |  |  |  | 
c1ccc(Cc2ccccc2OC2CCNCC2)cc1 [VUF13816, 4-(2-Benzylphenoxy)piperidine] |  |  |  |  |  |  |  |  |  |  |  |  |  |  |  | radioligand binding assay pKi ([4]; H1R): 8.20

Source: publication PMC9234962, “Optimization of Peptide Linker-Based Fluorescent Ligands for the Histamine H1 Receptor” (Journal of Medicinal Chemistry, 2022)
